# Results as given in PubChem BioAssay (NCI).
#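 These data come from cells grown in 96-well plates and exposed to compound for 48 hours at five concentrations. Definition used: TGI = concentration required for complete inhibition of growth.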
# Experiments:
# Test in all cases: NCI anticancer screen, dose series, 48 h
# 786-0 renal = test system: 786-0 renal
# A549 NSCLC = test system: A549 NSCLC
# BT-549 breast = test system: BT-549 breast
# CAKI-1 renal = test system: CAKI-1 renal
# CCRF-CEM leukemia = test system: CCRF-CEM leukemia
# COLO 205 colon = test system: COLO 205 colon
# DU-145 prostate = test system: DU-145 prostate
# EKVX NSCLC = test system: EKVX NSCLC
# HCC-2998 colon = test system: HCC-2998 colon
# HCT-116 colon = test system: HCT-116 colon
# HCT-15 colon = test system: HCT-15 colon
# HL-60(TB) leukemia = test system: HL-60(TB) leukemia
# HOP-62 NSCLC = test system: HOP-62 NSCLC
# HS 578T breast = test system: HS 578T breast
# HT29 colon = test system: HT29 colon
# IGROV1 ovarian = test system: IGROV1 ovarian
# K-562 leukemia = test system: K-562 leukemia
# KM12 colon = test system: KM12 colon
# LOX IMVI melanoma = test system: LOX IMVI melanoma
# M14 melanoma = test system: M14 melanoma
# MALME-3M melanoma = test system: MALME-3M melanoma
# MCF7 breast = test system: MCF7 breast
# MDA-MB-231 breast = test system: MDA-MB-231 breast
# MDA-MB-435 = test system: MDA-MB-435
# MDA-N = test system: MDA-N
# MOLT-4 leukemia = test system: MOLT-4 leukemia
# NCI-H226 lung = test system: NCI-H226 lung
# NCI-H23 lung = test system: NCI-H23 lung
# NCI-H460 lung = test system: NCI-H460 lung
# NCI-H522 lung = test system: NCI-H522 lung
# OVCAR-3 ovarian = test system: OVCAR-3 ovarian
# OVCAR-4 ovarian = test system: OVCAR-4 ovarian
# OVCAR-8 ovarian = test system: OVCAR-8 ovarian
# PC-3 prostate = test system: PC-3 prostate
# RPMI-8226 leukemia = test system: RPMI-8226 leukemia
# RXF 393 renal = test system: RXF 393 renal
# SF-268 CNS = test system: SF-268 CNS
# SF-295 CNS = test system: SF-295 CNS
# SF-539 CNS = test system: SF-539 CNS
# SK-MEL-2 melanoma = test system: SK-MEL-2 melanoma
# SK-MEL-28 melanoma = test system: SK-MEL-28 melanoma
# SK-MEL-5 melanoma = test system: SK-MEL-5 melanoma
# SK-OV-3 ovarian = test system: SK-OV-3 ovarian
# SN12C renal = test system: SN12C renal
# SNB-19 CNS = test system: SNB-19 CNS
# SR leukemia = test system: SR leukemia
# SW-620 colon = test system: SW-620 colon
# T-47D breast = test system: T-47D breast
# TK-10 renal = test system: TK-10 renal
# U251 CNS = test system: U251 CNS
# UACC-257 melanoma = test system: UACC-257 melanoma
# UO-31 renal = test system: UO-31 renal
# A498 renal = test system: A498 renal
# ACHN renal = test system: ACHN renal
# HOP-92 NSCLC = test system: HOP-92 NSCLC
# OVCAR-5 ovarian = test system: OVCAR-5 ovarian
# NCI/ADR-RES ovarian = test system: NCI/ADR-RES ovarian
# SNB-75 CNS = test system: SNB-75 CNS
# UACC-62 melanoma = test system: UACC-62 melanoma
smiles,measurement,setting,value
CCN(CC)CCN(C(=Nc1ccccc1)N1CCCCC1)c1ccccc1,TGI,786-0 renal,85.9 µM
same,TGI,A549 NSCLC,45.2 µM
same,TGI,BT-549 breast,47 µM
same,TGI,CAKI-1 renal,> 100 µM
same,TGI,CCRF-CEM leukemia,46.5 µM
same,TGI,COLO 205 colon,13.1 µM
same,TGI,DU-145 prostate,> 100 µM
same,TGI,EKVX NSCLC,> 100 µM
same,TGI,HCC-2998 colon,19.9 µM
same,TGI,HCT-116 colon,3.35 µM
same,TGI,HCT-15 colon,> 100 µM
same,TGI,HL-60(TB) leukemia,6.95 µM
same,TGI,HOP-62 NSCLC,22.2 µM
same,TGI,HS 578T breast,27 µM
same,TGI,HT29 colon,30.9 µM
same,TGI,IGROV1 ovarian,20.6 µM
same,TGI,K-562 leukemia,16.2 µM
same,TGI,KM12 colon,23.9 µM
same,TGI,LOX IMVI melanoma,23.7 µM
same,TGI,M14 melanoma,21.7 µM
same,TGI,MALME-3M melanoma,40.1 µM
same,TGI,MCF7 breast,56.7 µM
same,TGI,MDA-MB-231 breast,38.8 µM
same,TGI,MDA-MB-435,20.6 µM
same,TGI,MDA-N,11.2 µM
same,TGI,MOLT-4 leukemia,25.2 µM
same,TGI,NCI-H226 lung,29.3 µM
same,TGI,NCI-H23 lung,25.6 µM
same,TGI,NCI-H460 lung,24.8 µM
same,TGI,NCI-H522 lung,13.2 µM
same,TGI,OVCAR-3 ovarian,28.3 µM
same,TGI,OVCAR-4 ovarian,57.8 µM
same,TGI,OVCAR-8 ovarian,29.5 µM
same,TGI,PC-3 prostate,24.8 µM
same,TGI,RPMI-8226 leukemia,8.71 µM
same,TGI,RXF 393 renal,41.1 µM
same,TGI,SF-268 CNS,> 100 µM
same,TGI,SF-295 CNS,17.9 µM
same,TGI,SF-539 CNS,40 µM
same,TGI,SK-MEL-2 melanoma,37.7 µM
same,TGI,SK-MEL-28 melanoma,46 µM
same,TGI,SK-MEL-5 melanoma,17.6 µM
same,TGI,SK-OV-3 ovarian,24.2 µM
same,TGI,SN12C renal,29 µM
same,TGI,SNB-19 CNS,> 100 µM
same,TGI,SR leukemia,23.6 µM
same,TGI,SW-620 colon,> 100 µM
same,TGI,T-47D breast,9.92 µM
same,TGI,TK-10 renal,97.8 µM
same,TGI,U251 CNS,43.3 µM
same,TGI,UACC-257 melanoma,34.7 µM
same,TGI,UO-31 renal,26.5 µM
CO[C@H]1C[C@H](O[C@H]2CC[C@]3(C=O)[C@H]4CC[C@]5(C)[C@@H](C6=CC(=O)OC6)CC[C@]5(O)[C@@H]4CC[C@]3(O)C2)O[C@H](C)[C@H]1O[C@@H]1O[C@H](CO)[C@@H](O)[C@H](O)[C@H]1O,TGI,A498 renal,0.000198 µM
same,TGI,A549 NSCLC,9.83e-06 µM
same,TGI,ACHN renal,0.000135 µM
same,TGI,BT-549 breast,4.72e-05 µM
same,TGI,CCRF-CEM leukemia,0.025 µM
same,TGI,COLO 205 colon,0.000867 µM
same,TGI,DU-145 prostate,1.66e-05 µM
same,TGI,EKVX NSCLC,2.03e-05 µM
same,TGI,HCC-2998 colon,0.0271 µM
same,TGI,HCT-116 colon,3.5e-05 µM
same,TGI,HCT-15 colon,8.31e-05 µM
same,TGI,HL-60(TB) leukemia,0.011 µM
same,TGI,HOP-62 NSCLC,4.25e-05 µM
same,TGI,HOP-92 NSCLC,0.000141 µM
same,TGI,HS 578T breast,> 100 µM
same,TGI,IGROV1 ovarian,0.139 µM
same,TGI,MDA-MB-231 breast,0.0025 µM
same,TGI,MDA-N,7.4e-05 µM
same,TGI,MOLT-4 leukemia,1.32e-05 µM
same,TGI,NCI-H23 lung,2.88e-05 µM
same,TGI,NCI-H460 lung,7.71e-05 µM
same,TGI,NCI-H522 lung,4.05e-05 µM
same,TGI,OVCAR-4 ovarian,3.07e-05 µM
same,TGI,OVCAR-5 ovarian,6.97e-05 µM
same,TGI,PC-3 prostate,0.000955 µM
same,TGI,RPMI-8226 leukemia,0.0001 µM
same,TGI,RXF 393 renal,0.000154 µM
same,TGI,SF-295 CNS,0.000289 µM
same,TGI,SF-539 CNS,5.85e-05 µM
same,TGI,SK-MEL-2 melanoma,0.000435 µM
same,TGI,SK-MEL-28 melanoma,0.000145 µM
same,TGI,SK-MEL-5 melanoma,9.72e-05 µM
same,TGI,SK-OV-3 ovarian,0.000153 µM
same,TGI,SN12C renal,3.64e-05 µM
same,TGI,SW-620 colon,7.47e-05 µM
same,TGI,T-47D breast,0.000185 µM
same,TGI,TK-10 renal,0.000395 µM
COC(=O)[C@H](Cc1c[nH]c2ccccc12)NP(=O)(O)OC[C@H]1O[C@@H](n2cc(C)c(=O)[nH]c2=O)C[C@@H]1N=[N+]=[N-],TGI,786-0 renal,> 100 µM
same,TGI,A549 NSCLC,> 100 µM
same,TGI,BT-549 breast,> 100 µM
same,TGI,CAKI-1 renal,> 100 µM
same,TGI,CCRF-CEM leukemia,> 100 µM
same,TGI,COLO 205 colon,> 100 µM
same,TGI,DU-145 prostate,> 100 µM
same,TGI,EKVX NSCLC,> 100 µM
same,TGI,HCC-2998 colon,> 100 µM
same,TGI,HCT-116 colon,> 100 µM
same,TGI,HCT-15 colon,> 100 µM
same,TGI,HL-60(TB) leukemia,> 100 µM
same,TGI,HOP-62 NSCLC,> 100 µM
same,TGI,HOP-92 NSCLC,> 100 µM
same,TGI,HS 578T breast,> 100 µM
same,TGI,HT29 colon,> 100 µM
same,TGI,IGROV1 ovarian,> 100 µM
same,TGI,K-562 leukemia,> 100 µM
same,TGI,KM12 colon,> 100 µM
same,TGI,LOX IMVI melanoma,> 100 µM
same,TGI,M14 melanoma,> 100 µM
same,TGI,MALME-3M melanoma,> 100 µM
same,TGI,MCF7 breast,> 100 µM
same,TGI,MDA-MB-231 breast,> 100 µM
same,TGI,MDA-MB-435,> 100 µM
same,TGI,MDA-N,> 100 µM
same,TGI,MOLT-4 leukemia,> 100 µM
same,TGI,NCI-H226 lung,> 100 µM
same,TGI,NCI-H23 lung,> 100 µM
same,TGI,NCI-H460 lung,> 100 µM
same,TGI,NCI-H522 lung,> 100 µM
same,TGI,NCI/ADR-RES ovarian,> 100 µM
same,TGI,OVCAR-3 ovarian,> 100 µM
same,TGI,OVCAR-4 ovarian,> 100 µM
same,TGI,OVCAR-5 ovarian,> 100 µM
same,TGI,OVCAR-8 ovarian,> 100 µM
same,TGI,PC-3 prostate,> 100 µM
same,TGI,RPMI-8226 leukemia,> 100 µM
same,TGI,RXF 393 renal,> 100 µM
same,TGI,SF-268 CNS,> 100 µM
same,TGI,SF-295 CNS,> 100 µM
same,TGI,SK-MEL-2 melanoma,> 100 µM
same,TGI,SK-MEL-5 melanoma,> 100 µM
same,TGI,SK-OV-3 ovarian,> 100 µM
same,TGI,SN12C renal,> 100 µM
same,TGI,SNB-19 CNS,> 100 µM
same,TGI,SNB-75 CNS,> 100 µM
same,TGI,SW-620 colon,> 100 µM
same,TGI,T-47D breast,> 100 µM
same,TGI,TK-10 renal,> 100 µM
same,TGI,U251 CNS,> 100 µM
same,TGI,UACC-257 melanoma,> 100 µM
same,TGI,UACC-62 melanoma,> 100 µM
same,TGI,UO-31 renal,> 100 µM
COc1cc2oc(-c3ccc4c(c3)OCO4)c(OC)c(=O)c2c(OC)c1O,TGI,786-0 renal,43.9 µM
same,TGI,A498 renal,> 100 µM
same,TGI,A549 NSCLC,> 100 µM
same,TGI,ACHN renal,> 100 µM
same,TGI,BT-549 breast,> 100 µM
same,TGI,CAKI-1 renal,> 100 µM
same,TGI,CCRF-CEM leukemia,> 100 µM
same,TGI,COLO 205 colon,> 100 µM
same,TGI,DU-145 prostate,> 100 µM
same,TGI,EKVX NSCLC,> 100 µM
same,TGI,HCC-2998 colon,> 100 µM
same,TGI,HCT-116 colon,> 100 µM
same,TGI,HCT-15 colon,> 100 µM
same,TGI,HL-60(TB) leukemia,84 µM
same,TGI,HOP-62 NSCLC,> 100 µM
same,TGI,HOP-92 NSCLC,89.4 µM
same,TGI,HS 578T breast,> 100 µM
same,TGI,HT29 colon,> 100 µM
same,TGI,IGROV1 ovarian,> 100 µM
same,TGI,K-562 leukemia,> 100 µM
same,TGI,KM12 colon,> 100 µM
same,TGI,LOX IMVI melanoma,> 100 µM
same,TGI,M14 melanoma,> 100 µM
same,TGI,MALME-3M melanoma,> 100 µM
same,TGI,MCF7 breast,> 100 µM
same,TGI,MDA-MB-231 breast,> 100 µM
same,TGI,MDA-MB-435,> 100 µM
same,TGI,MDA-N,> 100 µM
same,TGI,MOLT-4 leukemia,> 100 µM
same,TGI,NCI-H226 lung,> 100 µM
same,TGI,NCI-H23 lung,> 100 µM
same,TGI,NCI-H460 lung,> 100 µM
same,TGI,NCI-H522 lung,59.2 µM
same,TGI,NCI/ADR-RES ovarian,> 100 µM
same,TGI,OVCAR-3 ovarian,> 100 µM
same,TGI,OVCAR-4 ovarian,> 100 µM
same,TGI,OVCAR-5 ovarian,> 100 µM
same,TGI,OVCAR-8 ovarian,> 100 µM
same,TGI,PC-3 prostate,> 100 µM
same,TGI,RXF 393 renal,> 100 µM
same,TGI,SF-268 CNS,> 100 µM
same,TGI,SF-295 CNS,> 100 µM
same,TGI,SF-539 CNS,> 100 µM
same,TGI,SK-MEL-28 melanoma,> 100 µM
same,TGI,SK-MEL-5 melanoma,> 100 µM
same,TGI,SK-OV-3 ovarian,> 100 µM
same,TGI,SN12C renal,> 100 µM
same,TGI,SNB-19 CNS,> 100 µM
same,TGI,SNB-75 CNS,97.6 µM
same,TGI,SW-620 colon,> 100 µM
same,TGI,T-47D breast,> 100 µM
same,TGI,TK-10 renal,> 100 µM
same,TGI,U251 CNS,> 100 µM
same,TGI,UACC-257 melanoma,> 100 µM
same,TGI,UACC-62 melanoma,> 100 µM
same,TGI,UO-31 renal,> 100 µM
